Assay results as given in ChEMBL document CHEMBL1201862, “PubChem BioAssay data set” (2004).
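How tested: cells in 96-well plates exposed to compound for 48 hours at five concentrations. The concentration for 50% growth inhibition is given as GI50.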 Activity calls are given as the source filed them. No stated cut-off is given here; in the data, active = GI50 up to about 1.1 µM and inactive = higher.

Assays:
Assay in all cases: NCI anticancer screen, dose series, 48 h
Hs-578T = system: Hs-578T
KM12 = system: KM12
MDA-MB-435 = system: MDA-MB-435
HOP-92 = system: HOP-92
HOP-62 = system: HOP-62
UACC-257 = system: UACC-257
A549 = system: A549
OVCAR-8 = system: OVCAR-8
IGROV-1 = system: IGROV-1
SK-MEL-2 = system: SK-MEL-2
CAKI-1 = system: CAKI-1
OVCAR-3 = system: OVCAR-3
SF-268 = system: SF-268
HT-29 = system: HT-29
UO-31 = system: UO-31
PC-3 = system: PC-3
NCI/ADR-RES = system: NCI/ADR-RES
SF-295 = system: SF-295
OVCAR-4 = system: OVCAR-4
HCT-116 = system: HCT-116
SF-539 = system: SF-539
HL-60 = system: HL-60
K562 = system: K562
SNB-75 = system: SNB-75
SK-OV-3 = system: SK-OV-3
Malme-3M = system: Malme-3M
HCT-15 = system: HCT-15
NCI-H460 = system: NCI-H460
TK-10 = system: TK-10
T47D = system: T47D
COLO 205 = system: COLO 205
OVCAR-5 = system: OVCAR-5
UACC-62 = system: UACC-62
MDA-N = system: MDA-N
BT-549 = system: BT-549
ACHN = system: ACHN
HCC 2998 = system: HCC 2998
RXF 393 = system: RXF 393
SW-620 = system: SW-620
LOX IMVI = system: LOX IMVI
MOLT-4 = system: MOLT-4
RPMI-8226 = system: RPMI-8226
A498 = system: A498
EKVX = system: EKVX
SNB-19 = system: SNB-19
MCF7 = system: MCF7
SK-MEL-28 = system: SK-MEL-28
CCRF-CEM = system: CCRF-CEM
NCI-H23 = system: NCI-H23
SK-MEL-5 = system: SK-MEL-5
SN12C = system: SN12C
MDA-MB-231 = system: MDA-MB-231
NCI-H522 = system: NCI-H522
U-251 = system: U-251
M14 = system: M14
DU-145 = system: DU-145
SR = system: SR
786-0 = system: 786-0
NCI-H226 = system: NCI-H226

With `CC1CC(Br)C(=O)O1` (configuration not stated) the GI50 (Hs-578T) was > 100 µM (inactive), the GI50 (KM12) was > 100 µM (inactive) and the GI50 (MDA-MB-435) was > 100 µM (inactive). For the same compound, the GI50 (HOP-92) was > 100 µM (inactive), the GI50 (HOP-62) was > 100 µM (inactive) and the GI50 (UACC-257) was > 100 µM (inactive). The GI50 (A549) was > 100 µM (inactive), the GI50 (OVCAR-8) was > 100 µM (inactive) and the GI50 (IGROV-1) was > 100 µM (inactive). For the same compound, the GI50 (SK-MEL-2) was > 100 µM (inactive), the GI50 (CAKI-1) was > 100 µM (inactive) and the GI50 (OVCAR-3) was > 100 µM (inactive). The GI50 (SF-268) was > 100 µM (inactive), the GI50 (HT-29) was > 100 µM (inactive) and the GI50 (UO-31) was > 100 µM (inactive). The GI50 (PC-3) was > 100 µM (inactive), the GI50 (NCI/ADR-RES) was > 100 µM (inactive) and the GI50 (SF-295) was > 100 µM (inactive). The GI50 (OVCAR-4) was > 100 µM (inactive), the GI50 (HCT-116) was > 100 µM (inactive) and the GI50 (SF-539) was > 100 µM (inactive). The GI50 (HL-60) was > 100 µM (inactive), the GI50 (K562) was 47 µM (inactive) and the GI50 (SNB-75) was 70 µM (inactive). For the same compound, the GI50 (SK-OV-3) was > 100 µM (inactive), the GI50 (Malme-3M) was > 100 µM (inactive) and the GI50 (HCT-15) was over 100 µM. The GI50 (NCI-H460) was > 100 µM (inactive), the GI50 (TK-10) was > 100 µM (inactive) and the GI50 (T47D) was > 100 µM (inactive). For the same compound, the GI50 (COLO 205) was > 100 µM (inactive), the GI50 (OVCAR-5) was > 100 µM (inactive) and the GI50 (UACC-62) was > 100 µM (inactive). The GI50 (MDA-N) was > 100 µM (inactive), the GI50 (BT-549) was > 100 µM (inactive) and the GI50 (ACHN) was > 100 µM (inactive). The GI50 (HCC 2998) was > 100 µM (inactive), the GI50 (RXF 393) was > 100 µM (inactive) and the GI50 (SW-620) was > 100 µM (inactive). For the same compound, the GI50 (LOX IMVI) was > 100 µM (inactive), the GI50 (MOLT-4) was > 100 µM (inactive) and the GI50 (RPMI-8226) was 38.6 µM (inactive). For the same compound, the GI50 (A498) was > 100 µM (inactive), the GI50 (EKVX) was > 100 µM (inactive) and the GI50 (SNB-19) was > 100 µM (inactive). For the same compound, the GI50 (MCF7) was > 100 µM (inactive), the GI50 (SK-MEL-28) was > 100 µM (inactive) and the GI50 (CCRF-CEM) was > 100 µM (inactive). For the same compound, the GI50 (NCI-H23) was > 100 µM (inactive), the GI50 (SK-MEL-5) was > 100 µM (inactive) and the GI50 (SN12C) was > 100 µM (inactive). The GI50 (MDA-MB-231) was > 100 µM (inactive), the GI50 (NCI-H522) was > 100 µM (inactive) and the GI50 (U-251) was > 100 µM (inactive). The GI50 (M14) was > 100 µM (inactive) and the GI50 (DU-145) was > 100 µM (inactive).
For `CC1=CC(=O)/C(=C/n2c(=S)[nH]c3ccc([N+](=O)[O-])cc32)C(=O)O1`, the GI50 (Hs-578T) was > 100 µM (inactive), the GI50 (KM12) was > 100 µM (inactive) and the GI50 (MDA-MB-435) was > 100 µM (inactive). The GI50 (HOP-92) was > 100 µM (inactive), the GI50 (HOP-62) was > 100 µM (inactive) and the GI50 (UACC-257) was > 100 µM (inactive). The GI50 (A549) was > 100 µM (inactive), the GI50 (SR) was > 100 µM (inactive) and the GI50 (OVCAR-8) was > 100 µM (inactive). The GI50 (IGROV-1) was > 100 µM (inactive), the GI50 (786-0) was > 100 µM (inactive) and the GI50 (SK-MEL-2) was > 100 µM (inactive). For the same compound, the GI50 (OVCAR-3) was > 100 µM (inactive), the GI50 (SF-268) was > 100 µM (inactive) and the GI50 (HT-29) was > 100 µM (inactive). The GI50 (UO-31) was > 100 µM (inactive), the GI50 (PC-3) was > 100 µM (inactive) and the GI50 (NCI/ADR-RES) was > 100 µM (inactive). For the same compound, the GI50 (SF-295) was > 100 µM (inactive), the GI50 (NCI-H226) was > 100 µM (inactive) and the GI50 (OVCAR-4) was > 100 µM (inactive). For the same compound, the GI50 (HCT-116) was > 100 µM (inactive), the GI50 (SF-539) was > 100 µM (inactive) and the GI50 (HL-60) was 2.09 µM (inactive). For the same compound, the GI50 (K562) was > 100 µM (inactive), the GI50 (SNB-75) was > 100 µM (inactive) and the GI50 (SK-OV-3) was > 100 µM (inactive). For the same compound, the GI50 (HCT-15) was over 100 µM, the GI50 (NCI-H460) was > 100 µM (inactive) and the GI50 (TK-10) was > 100 µM (inactive). For the same compound, the GI50 (T47D) was > 100 µM (inactive), the GI50 (COLO 205) was > 100 µM (inactive) and the GI50 (OVCAR-5) was > 100 µM (inactive). For the same compound, the GI50 (UACC-62) was > 100 µM (inactive), the GI50 (MDA-N) was > 100 µM (inactive) and the GI50 (BT-549) was > 100 µM (inactive). The GI50 (ACHN) was > 100 µM (inactive), the GI50 (HCC 2998) was > 100 µM (inactive) and the GI50 (RXF 393) was > 100 µM (inactive). For the same compound, the GI50 (SW-620) was > 100 µM (inactive), the GI50 (LOX IMVI) was > 100 µM (inactive) and the GI50 (MOLT-4) was > 100 µM (inactive). For the same compound, the GI50 (RPMI-8226) was > 100 µM (inactive), the GI50 (EKVX) was > 50.1 µM (inactive) and the GI50 (SNB-19) was > 100 µM (inactive). The GI50 (MCF7) was > 100 µM (inactive), the GI50 (SK-MEL-28) was > 100 µM (inactive) and the GI50 (CCRF-CEM) was > 100 µM (inactive). The GI50 (NCI-H23) was > 100 µM (inactive), the GI50 (SK-MEL-5) was > 100 µM (inactive) and the GI50 (SN12C) was > 100 µM (inactive). For the same compound, the GI50 (MDA-MB-231) was > 100 µM (inactive), the GI50 (NCI-H522) was > 100 µM (inactive) and the GI50 (U-251) was > 100 µM (inactive). The GI50 (M14) was > 100 µM (inactive) and the GI50 (DU-145) was > 100 µM (inactive).
